In patent publication US20250136606A1, “MODULATORS OF TRPML, THEIR COMPOSITIONS AND METHODS OF USE” (Caraway Therapeutics, Inc., priority 2021, published 2025):

How the values were obtained:
Assay type in all cases: cell-based
Settings in all cases: fluorescent calcium assay
[1] = target: T1, TRPML3 (Homo sapiens, UniProt Q8TDD5); test: Fluorescent TRPML3 assay (performed as for TRPML1, substituting the TRPML3 subtype)
T1 construct: expressed in transfected cells
T1 sequence (Q8TDD5 1-553): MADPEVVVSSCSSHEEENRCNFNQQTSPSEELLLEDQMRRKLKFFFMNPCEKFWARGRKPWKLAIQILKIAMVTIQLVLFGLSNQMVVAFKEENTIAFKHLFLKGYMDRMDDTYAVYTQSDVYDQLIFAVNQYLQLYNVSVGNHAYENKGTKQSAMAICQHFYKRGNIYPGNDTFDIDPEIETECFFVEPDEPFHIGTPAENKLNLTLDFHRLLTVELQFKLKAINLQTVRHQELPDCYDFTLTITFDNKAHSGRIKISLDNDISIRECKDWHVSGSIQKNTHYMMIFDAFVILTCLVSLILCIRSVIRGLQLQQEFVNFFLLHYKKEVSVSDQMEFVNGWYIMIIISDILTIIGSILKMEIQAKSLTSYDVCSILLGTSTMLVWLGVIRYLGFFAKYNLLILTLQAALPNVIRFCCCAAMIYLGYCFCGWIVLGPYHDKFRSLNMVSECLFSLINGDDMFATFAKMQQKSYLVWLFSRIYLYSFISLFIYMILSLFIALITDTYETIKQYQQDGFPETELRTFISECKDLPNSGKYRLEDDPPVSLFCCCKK
Procedure, shortened: (§1)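 HEK-293 Trex, dox-induced (0.5 ug/mL), mutated for surface expression. Fluo4-AM 1 micromolar load ~60 min, dark; buffer modified Ringer's, 10 mM Ca. Cpds 20 micromolar–6 nanomolar final, half-log, n=3. Read ex 480/em 540; % activity vs controls; EC50 nonlinear fit.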

[2] = target: TRPML1 (Homo sapiens, UniProt Q9GZU1); test: Fluorescent TRPML1 assay (Fluo4-AM calcium fluorescence in doxycycline-induced HEK-293 Trex cells)
TRPML1, sequence (Q9GZU1 whole entry L15A/L16A/L577A/L578A, form open): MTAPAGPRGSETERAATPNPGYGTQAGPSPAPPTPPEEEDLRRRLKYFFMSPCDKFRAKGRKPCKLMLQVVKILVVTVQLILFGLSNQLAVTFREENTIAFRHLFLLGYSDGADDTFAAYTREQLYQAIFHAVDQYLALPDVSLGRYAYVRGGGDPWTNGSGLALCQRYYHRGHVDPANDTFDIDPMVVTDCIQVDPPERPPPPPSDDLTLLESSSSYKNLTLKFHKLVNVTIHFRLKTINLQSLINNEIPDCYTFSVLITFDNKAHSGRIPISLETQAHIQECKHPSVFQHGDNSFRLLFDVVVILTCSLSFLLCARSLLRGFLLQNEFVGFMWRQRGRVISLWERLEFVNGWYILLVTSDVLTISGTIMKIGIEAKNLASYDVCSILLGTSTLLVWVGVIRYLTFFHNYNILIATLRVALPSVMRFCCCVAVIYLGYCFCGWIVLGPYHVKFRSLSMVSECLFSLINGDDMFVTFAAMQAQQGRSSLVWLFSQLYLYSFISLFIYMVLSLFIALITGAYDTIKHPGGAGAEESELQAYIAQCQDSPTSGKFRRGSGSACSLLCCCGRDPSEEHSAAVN
Procedure, shortened: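 First, expression of surface-targeted mutant human TRPML1 is induced in HEK-293 Trex cells with 0.5 ug/mL doxycycline the day before. Next, cells take up 1 micromolar Fluo4-AM in Ringer's with 0.1% Pluronic. Finally, they are added to compounds (6 nanomolar–20 micromolar final) in 10 mM calcium Ringer's and fluorescence is read.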

[3] = target: T2, TRPML2 (Homo sapiens, UniProt Q8IZK6); test: Fluorescent TRPML2 assay (performed as for TRPML1, substituting the TRPML2 subtype)
T2 construct: expressed in transfected cells
T2 sequence (Q8IZK6 1-566): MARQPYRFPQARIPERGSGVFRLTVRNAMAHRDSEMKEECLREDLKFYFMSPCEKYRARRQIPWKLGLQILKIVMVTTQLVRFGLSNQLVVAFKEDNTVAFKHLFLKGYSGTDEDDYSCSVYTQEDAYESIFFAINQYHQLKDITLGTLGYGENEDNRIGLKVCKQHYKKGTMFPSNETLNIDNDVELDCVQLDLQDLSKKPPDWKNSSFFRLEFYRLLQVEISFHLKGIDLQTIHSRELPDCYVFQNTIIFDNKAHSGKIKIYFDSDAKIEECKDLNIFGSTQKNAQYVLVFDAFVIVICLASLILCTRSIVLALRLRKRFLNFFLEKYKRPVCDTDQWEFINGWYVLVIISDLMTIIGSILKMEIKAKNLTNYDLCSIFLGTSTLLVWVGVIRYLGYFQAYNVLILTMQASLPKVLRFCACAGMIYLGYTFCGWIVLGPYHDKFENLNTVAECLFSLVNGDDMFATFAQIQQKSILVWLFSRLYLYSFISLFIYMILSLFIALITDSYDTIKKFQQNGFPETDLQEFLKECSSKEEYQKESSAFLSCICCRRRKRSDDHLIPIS
Procedure, shortened: as §1

| EC50 [1] | EC50 [2] | EC50 [3] | SMILES |
| --- | --- | --- | --- |
| < 100 nM | < 100 nM | < 100 nM | Cc1cn(-c2cc(C#N)ccn2)c2ncnc(N3CCN(C(=O)OC(C)(C)C)C[C@@H]3C)c12 [Compound 476, tert-butyl (S)-4-(7-(4-cyanopyridin-2-yl)-5-methyl-7H-pyrrolo [2,3-d]pyrimidin-4-yl)-3-methylpiperazine-1-carboxylate] |
| < 100 nM | < 100 nM | < 100 nM | Cc1cn(-c2cc(C#N)ccn2)c2ncnc(N3C[C@@H](C)N(C(=O)OC(C)(C)C)C[C@@H]3C)c12 [Compound 477, tert-butyl (2R,5S)-4-(7-(4-cyanopyridin-2-yl)-5-methyl-7H-pyrrolo[2,3-d]pyrimidin-4-yl)-2,5-dimethylpiperazine-1-carboxylate] |
| < 100 nM | < 100 nM | < 100 nM | CCc1cn(-c2cc(C#N)ccn2)c2ncnc(N3CCN(C(=O)OC(C)(C)C)C[C@@H]3C)c12 [Compound 478, tert-butyl (S)-4-(7-(4-cyanopyridin-2-yl)-5-ethyl-7H-pyrrolo[2,3-d]pyrimidin-4-yl)-3-methylpiperazine-1-carboxylate] |
| < 100 nM | < 100 nM | < 100 nM | CCc1cn(-c2cc(C#N)ccn2)c2ncnc(N3C[C@@H](C)N(C(=O)OC(C)(C)C)C[C@@H]3C)c12 [Compound 479, tert-butyl (2R,5S)-4-(7-(4-cyanopyridin-2-yl)-5-ethyl-7H-pyrrolo[2,3-d]pyrimidin-4-yl)-2,5-dimethylpiperazine-1-carboxylate] |
| < 100 nM | < 100 nM | 500 to 2000 nM | Cc1cn(-c2cc(F)ccn2)c2ncnc(N3C[C@@H](C)N(C(=O)OC(C)(C)C)C[C@@H]3C)c12 [Compound 480, tert-butyl (2R,5S)-4-(7-(4-fluoropyridin-2-yl)-5-methyl-7H-pyrrolo[2,3-d]pyrimidin-4-yl)-2,5-dimethylpiperazine-1-carboxylate] |

The next lines start with the molecule.

| SMILES | EC50 [1] | EC50 [2] | EC50 [3] |
| --- | --- | --- | --- |
| C[C@@H]1CN(C(=O)OC(C)(C)C)CCN1c1ncnc2c1c(C1=CCOCC1)cn2-c1cccc(F)c1 [Compound 471, tert-butyl (R)-4-(5-(3,6-dihydro-2H-pyran-4-yl)-7-(3-fluorophenyl)-7H-pyrrolo[2,3-d]pyrimidin-4-yl)-3-methylpiperazine-1-carboxylate] | 100 to 500 nM | 500 to 2000 nM | 500 to 2000 nM |
| C[C@H]1CN(C(=O)OC(C)(C)C)CCN1c1ncnc2c1c(C1=CCOCC1)cn2-c1cccc(F)c1 [Compound 472, tert-butyl (S)-4-(5-(3,6-dihydro-2H-pyran-4-yl)-7-(3-fluorophenyl)-7H-pyrrolo[2,3-d]pyrimidin-4-yl)-3-methylpiperazine-1-carboxylate] | 100 to 500 nM | 100 to 500 nM | 500 to 2000 nM |
| C[C@H]1CN(C(=O)OC(C)(C)C)CCN1c1ncnc2c1c(C1=CCOCC1)cn2-c1cc(F)cc(F)c1 [Compound 473, tert-butyl (S)-4-(7-(3,5-difluorophenyl)-5-(3,6-dihydro-2H-pyran-4-yl)-7H-pyrrolo[2,3-d]pyrimidin-4-yl)-3-methylpiperazine-1-carboxylate] | 100 to 500 nM | 100 to 500 nM | 500 to 2000 nM |
| C[C@H]1CN(C(=O)OC(C)(C)C)CCN1c1ncnc2c1c(C1COC1)cn2-c1cccc(F)c1 [Compound 474, tert-butyl (S)-4-(7-(3-fluorophenyl)-5-(oxetan-3-yl)-7H-pyrrolo[2,3-d]pyrimidin-4-yl)-3-methylpiperazine-1-carboxylate] | > 2000 nM | > 2000 nM | > 2000 nM |
| C[C@H]1CN(C(=O)OC(C)(C)C)CCN1c1ncnc2c1c(C1COC1)cn2-c1cc(F)cc(F)c1 [Compound 475, tert-butyl (S)-4-(7-(3,5-difluorophenyl)-5-(oxetan-3-yl)-7H-pyrrolo[2,3-d]pyrimidin-4-yl)-3-methylpiperazine-1-carboxylate] | 100 to 500 nM | 500 to 2000 nM | > 2000 nM |
